Assay results taken from patent publication US20150368248A1, “2-SUBSTITUTED-6-BIARYLMETHYLAMINO-9-CYCLOPENTYL-9H-PURINE DERIVATIVES, USE THEREOF AS MEDICAMENTS, AND PHARMACEUTICAL COMPOSITIONS” (UNIVERZITA PALACKEHO V OLOMOUCI, priority 2013, published 2015).

How the values were obtained:
[1] = target: T1, CDK5/p35 (Homo sapiens, UniProt Q00535); test: Kinase inhibition assay, recombinant kinase, [γ-33P]ATP; type: biochemical; conditions: Table 12; read-out: IC50, CDK5/p25NCK
T1 construct: purchased ProQinase GmbH (Freiburg, Germany)

[2] = test system: PARP-1; test: Immunoblot analysis of PARP cleavage; type: cell-based, human
Procedure: Effect of BP14 on cell apoptosis was complemented by immunoblot analysis of selected apoptotic proteins. For immunoblotting, cell were detached with rubber policeman and washed three times with ice-cold PBS and lysed in buffer (50 mM Tris, pH 7.4, 250 mM NaCl, 5 mM EDTA, 50 mM NaF, 1 mM Na3VO4, 1% Nonidet P40) containing mixture of protease and phosphatase inhibitors (Sigma-Aldrich, USA). 20 μg of total proteins were separated by SDS-polyacrylamide gel electrophoresis (SDS-PAGE) and transferred onto nitrocellulose membranes. Membranes were blocked in 5% milk and 0.1% Tween 20 in PBS and probed overnight with specific antibodies for PARP-1 (clone F-2; Santa Cruz Biotechnology, USA), Mcl-1 (S-19; Santa Cruz Biotechnology, USA) and β-actin (C-4, Santa Cruz Biotechnology, USA). All primary antibodies were diluted in PBS containing 5% powdered milk; 0.1% Tween 20. Peroxidase conjugated rabbit anti-mouse immunoglobulin or porcine anti-rabbit immunoglobulin antisera (DAKO, Denmark) were used as the secondary antibodies and visualised with ECL reagents (Amersham-Pharmacia, Little Chalfont, UK).
Immunoblotting was performed as described previously (36). The primary antibodies were used at the dilutions: anti-phospho-Ser5 RNA Pol II (CDK7; Bethyl Laboratories, Montgomery, USA), 1:1,000; anti-phospho-Ser2 RNA Pol II (CDK9; Bethyl Laboratories, Montgomery, USA), 1:1,000; anti-RNA Pol II (Santa Cruz Biotechnology, Santa Cruz, USA), 1:1,000; anti-PARP (Cell Signaling Technology, Beverly, USA), 1:1,000; anti-β-actin (Sigma, St. Louis, USA), 1:2.500. Horseradish peroxidase-conjugated secondary antibodies (Calbiochem, LaJolla, USA) were used at dilutions of 1:10,000.

[3] = test system: CDK1/CDK2; test: Kinase inhibition assays using cell-free extracts; type: biochemical, human; conditions: 0.03 μM
Procedure: Whole cell extracts were prepared by lysing Hep3B cells with a buffer containing 20 mM Tris pH 8.0, 100 mM NaCl, 1 mM EDTA and 0.5% NP-40. 100 μg of extract was used for immunoprecipitation at 4° C. for 4 hours either with 1 μg of the anti-CDK2 antibody M2 (Santa Cruz Biotechnology, Santa Cruz, USA) or with 1 μg of the anti-cyclin B1 antibody GNS1 (Santa Cruz Biotechnology, Santa Cruz, USA). The precipitated proteins were washed three times with lysis buffer followed by one wash with the kinase buffer (50 mM HEPES pH 7.5, 10 mM MgCl2 and 1 mM DTT) and subsequently resuspended in 20 μl kinase buffer containing 5 μCi [γ-^32P]ATP
(PerkinElmer, Santa Clara, USA), 1 μg histone H1 (New England Biolabs, Ipswich, USA) and the respective concentration of inhibitor. After incubation for 60 minutes at 30° C., the supernatant was boiled in sample buffer containing 60 mM Tris/HCl pH6.8, 10% Glycerol, 2% SDS, 5% β-mercaptoethanol, 0.02% Bromophenol Blue. The proteins were separated by SDS-PAGE and blotted onto nitrocellulose membrane. Thereafter, the membrane was stained with Ponceau S to check equal loading and analyzed by autoradiography.

T1 sequence (Q00535 whole entry): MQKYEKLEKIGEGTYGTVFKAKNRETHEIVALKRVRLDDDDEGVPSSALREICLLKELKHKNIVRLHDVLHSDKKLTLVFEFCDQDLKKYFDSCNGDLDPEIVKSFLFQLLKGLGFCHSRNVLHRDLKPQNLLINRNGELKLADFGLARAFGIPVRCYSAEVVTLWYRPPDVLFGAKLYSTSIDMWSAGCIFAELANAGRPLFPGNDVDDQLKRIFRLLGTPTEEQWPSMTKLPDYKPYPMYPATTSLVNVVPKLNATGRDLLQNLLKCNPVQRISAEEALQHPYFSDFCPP
T1 sequence (Q15078 whole entry partner): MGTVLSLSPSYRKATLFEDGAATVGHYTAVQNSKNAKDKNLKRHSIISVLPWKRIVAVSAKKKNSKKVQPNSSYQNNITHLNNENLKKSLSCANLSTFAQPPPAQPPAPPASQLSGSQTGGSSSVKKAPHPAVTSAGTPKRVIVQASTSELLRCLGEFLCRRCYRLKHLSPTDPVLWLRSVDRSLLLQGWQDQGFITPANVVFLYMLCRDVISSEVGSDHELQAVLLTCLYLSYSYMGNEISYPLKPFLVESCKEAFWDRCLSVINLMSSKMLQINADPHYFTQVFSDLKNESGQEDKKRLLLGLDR

NC1CCC(Nc2nc(NCc3ccc(-c4ccco4)nc3)c3ncn(C4CCCC4)c3n2)CC1 (stereo not drawn) [BP14, N^2-(4-amino-cyclohexyl)-9-cyclopentyl-N^6-(6-furan-2-yl-pyridin-3-ylmethyl)-9H-purine-2,6-diamine]
IC50 [1]: 15 nM
cleavage of PARP and p53 expression ([2]; 0.2 μM, HepG2 and p53-mutated PLC cells): induced cleavage of PARP and p53 expression
protein level of PARP-1 ([2]; HUH-7 cells, concentration up to 3xIC50): no effect
caspase-3-cleaved PARP-1 fragment at 89 kDa ([2]; Hep3B and AHK3p cells, 24 hours): markedly observed
PARP processing in PHHs ([2]; primary human hepatocytes): failed to induce PARP processing
CDK1/CDK2 activity in cell-free extracts [3]: significantly reduced CDK1/CDK2 activity
